This note sets out measurements from EP2043663B1, “TOPICAL TREATMENT OF WARTS” (ITH Immune Therapy Holdings AB, priority 2006, dated 2008).

Each structure is given as a SMILES string.

For one data set, the system named is common wart. In words: Treatment of warts II: gelled aqueous dithionite solution applied to a wart. The data set is classed as in vivo, person. Conditions: several drops of freshly prepared aqueous solution containing 2.0 % by weight of hydroxypropylmethyl cellulose; back of hand; rinsed after half an hour; wart wetted three hours from application; wooden spatula. The text has this:
Treatment of warts II. Several drops of freshly prepared aqueous solution of sodium dithionite containing 2.0 % by weight of hydroxypropylmethyl cellulose are applied to a common wart on the back of a persons hand. After half an hour the hand is rinsed with water. Three hours from application the wart is wetted.

In the next data set the test system is epithelial cells. In words: Epithelial cytotoxicity cell assay. It counts as cell-based. Conditions: AIM V medium.

Regarding `O=S([O-])S(=O)[O-].[Na+].[Na+]` [sodium dithionite], the “removability of the wart” value in the data set on common wart was “easily removed”. The “effect on the cells (cytotoxicity)” value in the data set on epithelial cells (highest concentration) is “substantial cell death”; in the data set on epithelial cells (lowest concentration, 0.001 g/mL), “did not affect the cells”.
